According to patent US20250144067A1, “PERSONALIZED STARVATION THERAPY FOR CANCER” (Faeth Therapeutics, Inc., priority 2021, published 2025):
Where a name gives a salt, the structure may show the parent alone. Read-outs that look alike come from different tables or passages of the source. Square brackets hold non-standard residues; d marks the D form. Peptide text beside a SMILES is read from it. * marks the point of attachment. dPhe(4-NHCONH2) = NC(=O)Nc1ccc(C[C@@H](N)C(=O)O)cc1; Dihydroorotyl(S) = O=C1C[C@@H](C(=O)*)NC(=O)N1; dPhe(4-Cl) = N[C@H](Cc1ccc(Cl)cc1)C(=O)O; Phe(4-NH2) = Nc1ccc(C[C@H](N)C(=O)O)cc1; d2Nal = N[C@H](Cc1ccc2ccccc2c1)C(=O)O; Lys(iPr) = CC(C)NCCCC[C@H](N)C(=O)O; d3Pal = N[C@H](Cc1cccnc1)C(=O)O

Assays:
[1] = system: NCI-H292 lung cancer cells; assay: FDA drug screening, complete media vs cholesterol-free media with simvastatin (TABLE 2); type: cell-based, human
[2] = system: NCI-H292 lung cancer cells; assay: FDA drug screening, complete media vs cholesterol-free media without statin (TABLE 1); type: cell-based, human
[3] = NCI-H292 cells, cholesterol-free media with simvastatin 0.04 μM, FDA drug library screen (TABLE 2)
[4] = NCI-H292 cells, complete media, FDA drug library screen (TABLE 2)
[5] = complete media minus cholesterol-free media + simvastatin (0.04 μM), >0 enhanced anti-cancer activity, about 0 neutral, <0 antagonist
[6] = NCI-H292 cells, cholesterol-free media without statin
[7] = complete vs cholesterol-free media, greater than 0 enhanced anti-cancer activity, about 0 neutral, below 0 antagonists
[8] = Complete minus Cholesterol-free, greater than 0 enhanced anti-cancer activity, about 0 neutral, below 0 antagonist
[9] = NCI-H292 cells, FDA drug library screen, cholesterol-free media without statin
[10] = NCI-H292 cells, FDA drug library screen, complete media
[11] = NCI-H292 cells, FDA drug library screen, cholesterol-free media with simvastatin 0.04 μM
[12] = complete media minus cholesterol-free media + simvastatin, >0 enhanced anti-cancer activity, about 0 neutral, <0 antagonist
[13] = complete media minus cholesterol-free media + simvastatin (0.04 μM), […]
[14] = Complete minus Cholesterol-free, […]
[15] = NCI-H292 cells, cholesterol-free media without statin, FDA drug library screen
[16] = NCI-H292 cells, complete media, FDA drug library screen

Structure (SMILES): COc1c(-c2ccc3cc(NS(C)(=O)=O)ccc3c2)cc(-n2ccc(=O)[nH]c2=O)cc1C(C)(C)C [Dasabuvir]
- Cholesterol-free media + simvastatin (0.04 μM) [1, 3]: 1.1
- Complete Media [1, 4]: 1.064
- Difference [1, 5]: −0.04
- Cholesterol-free [2, 6]: 1.225
- Complete ([2]; NCI-H292 cells, complete media): 0.8287
- Difference [2, 7]: −0.40

Structure (SMILES): Cc1nc(Nc2ncc(C(=O)Nc3c(C)cccc3Cl)s2)cc(N2CCN(CCO)CC2)n1 [Dasatinib (hydrochloride)]
- Cholesterol-free media + simvastatin (0.04 μM) [1, 3]: 0.2818
- Complete Media [1, 4]: 0.268
- Difference [1, 5]: −0.01
- Difference [2, 8]: −0.10
- Cholesterol-free [2, 9]: 0.3831
- Complete [2, 10]: 0.2841

Structure (SMILES): Cc1nc(Nc2ncc(C(=O)Nc3c(C)cccc3Cl)s2)cc(N2CCN(CCO)CC2)n1 [Dasatinib]
- Cholesterol-free media + simvastatin (0.04 μM) [1, 11]: 0.3286
- Complete Media [1, 10]: 0.514
- Difference [1, 12]: 0.19
- Difference [2, 8]: −0.15
- Cholesterol-free [2, 9]: 0.4806
- Complete [2, 10]: 0.3333

Structure (SMILES): COc1cccc2c1C(=O)c1c(O)c3c(c(O)c1C2=O)C[C@@](O)(C(C)=O)C[C@@H]3O[C@H]1C[C@H](N)[C@H](O)[C@H](C)O1 [Daunorubicin (Hydrochloride)]
- Cholesterol-free media + simvastatin (0.04 μM) [1, 3]: 0.006543
- Complete Media [1, 4]: −0.007495
- Difference [1, 13]: −0.01
- Difference [2, 14]: −0.01
- Cholesterol-free [2, 15]: 0.01433
- Complete [2, 16]: 0.008412

Structure (SMILES): CC[C@H]1OC(=O)[C@H](C)[C@@H](O[C@H]2C[C@@](C)(OC)[C@@H](O)[C@H](C)O2)[C@H](C)[C@@H](O[C@@H]2O[C@H](C)C[C@H](N(C)C)[C@H]2O)[C@](C)(O)C[C@@H](C)C(=O)[C@H](C)[C@H]2OC(=O)O[C@@]21C [Davercin]
- Cholesterol-free media + simvastatin (0.04 μM) [1, 11]: 1.064
- Complete Media [1, 10]: 0.9657
- Difference ([1]; complete media vs cholesterol-free media + simvastatin (0.04 μM), […]): −0.10
- Cholesterol-free [2, 15]: 0.5403
- Complete [2, 16]: 0.9622
- Difference ([2]; complete vs cholesterol-free media, […]): 0.42

Structure (SMILES): C[N+](C)(C)CCCCCCCCCC[N+](C)(C)C.[Br-].[Br-] [Decamethonium (Bromide)]
- Cholesterol-free media + simvastatin (0.04 μM) [1]: 1.129
- Complete Media [1]: 0.9457
- Difference [1]: −0.18
- Cholesterol-free [2]: 1.121
- Complete [2]: 0.9062
- Difference [2]: −0.21

Structure (SMILES): Nc1ncn([C@H]2C[C@H](O)[C@@H](CO)O2)c(=O)n1 [Decitabine]
- Cholesterol-free media + simvastatin (0.04 μM) ([1]; NCI-H292 cells, cholesterol-free media with simvastatin 0.04 μM, cell growth value in FDA drug screen): 0.7335
- Complete Media ([1]; NCI-H292 cells, complete media, cell growth value in FDA drug screen): 0.7733
- Difference [1, 12]: 0.04
- Difference ([2]; Complete minus Cholesterol-free, >0 enhanced anti-cancer activity, about 0 neutral, <0 antagonist): −0.25
- Cholesterol-free [2, 6]: 0.8074
- Complete ([2]; NCI-H292 cells, complete media): 0.559

Structure (SMILES): Cl.Cl.OCCOCCN1CCN(C(c2ccccc2)c2ccccc2)CC1 [Decloxizine (dihydrochloride)]
- Cholesterol-free media + simvastatin (0.04 μM) ([1]; NCI-H292 cells, cholesterol-free media with simvastatin 0.04 μM, […]): 0.9553
- Complete Media ([1]; NCI-H292 cells, complete media, […]): 1.042
- Difference ([1]; complete media minus cholesterol-free media + simvastatin, […]): 0.09
- Difference [2, 14]: −0.22
- Cholesterol-free [2, 6]: 1.186
- Complete ([2]; NCI-H292 cells, complete media): 0.9687

Structure (SMILES): O=C(O)c1ccc(-n2nc(-c3ccccc3O)nc2-c2ccccc2O)cc1 [Deferasirox]
- Cholesterol-free media + simvastatin (0.04 μM) ([1]; NCI-H292 cells, drug in cholesterol-free media with simvastatin 0.04 μM): 1.22
- Complete Media ([1]; NCI-H292 cells, drug in complete media): 0.9596
- Difference ([1]; complete media vs cholesterol-free media + simvastatin (0.04 μM), >0 enhanced anti-cancer activity, about 0 neutral, <0 antagonist): −0.26
- Cholesterol-free [2, 6]: 1.441
- Complete ([2]; NCI-H292 cells, complete media): 0.9894
- Difference [2, 7]: −0.45

Structure (SMILES): Cc1c(O)c(=O)ccn1C [Deferiprone]
- Cholesterol-free media + simvastatin (0.04 μM) [1, 3]: 1.047
- Complete Media [1, 4]: 1.061
- Difference [1, 5]: 0.01
- Cholesterol-free [2, 6]: 1.443
- Complete ([2]; NCI-H292 cells, complete media): 1.044
- Difference [2, 7]: −0.40

Structure (SMILES): CC(=O)OCC(=O)[C@@]12N=C(C)O[C@@H]1C[C@H]1[C@@H]3CCC4=CC(=O)C=C[C@]4(C)[C@H]3[C@@H](O)C[C@@]12C [Deflazacort]
- Cholesterol-free media + simvastatin (0.04 μM) [1, 3]: 0.6257
- Complete Media [1, 4]: 0.5899
- Difference [1, 5]: −0.04
- Cholesterol-free [2, 15]: 0.629
- Complete [2, 16]: 0.7651
- Difference ([2]; complete vs cholesterol-free media, >0 enhanced anti-cancer activity, about 0 neutral, <0 antagonist): 0.14

Structure (SMILES): CC(=O)N[C@H](Cc1ccc2ccccc2c1)C(=O)N[C@H](Cc1ccc(Cl)cc1)C(=O)N[C@H](Cc1cccnc1)C(=O)N[C@@H](CO)C(=O)N[C@@H](Cc1ccc(NC(=O)[C@@H]2CC(=O)NC(=O)N2)cc1)C(=O)N[C@H](Cc1ccc(NC(N)=O)cc1)C(=O)N[C@@H](CC(C)C)C(=O)N[C@@H](CCCCNC(C)C)C(=O)N1CCC[C@H]1C(=O)N[C@H](C)C(N)=O [Degarelix] (Ac-[d2Nal][dPhe(4-Cl)][d3Pal]S[Phe(4-NH2)](Dihydroorotyl(S))[dPhe(4-NHCONH2)]L[Lys(iPr)]P[dA]-NH2)
- Cholesterol-free media + simvastatin (0.04 μM) [1, 3]: 1.679
- Complete Media [1, 4]: 1.609
- Difference [1, 13]: −0.07
- Difference [2, 14]: −0.81
- Cholesterol-free ([2]; NCI-H292 cells in cholesterol-free media without statin): 1.673
- Complete ([2]; NCI-H292 cells in complete media): 0.859
